Measurements: ChEMBL document CHEMBL5154658, “Discovery of quinazoline derivatives as novel small-molecule inhibitors targeting the programmed cell death-1/programmed cell death-ligand 1 (PD-1/PD-L1) interaction” (Eur J Med Chem, 2022)

Legend:
[1] = biological target: T1, Programmed cell death protein 1/Programmed cell death 1 ligand 1 (Homo sapiens, UniProt Q15116+Q9NZQ7); experiment: Inhibition of Tag2-PD-1/Tag1-PD-L1 (unknown origin) protein-protein interaction incubated for 15 mins by HTRF assay; assay type: protein-complex assay
[2] = biological target: T1, Programmed cell death protein 1/Programmed cell death 1 ligand 1; experiment: Inhibition of C-terminal-Fc-tagged human recombinant PD-1 (25 to 167 residues)/C-terminal-His-tagged recombinant human PD-L1 (19 to 238 residues) interaction incubated for 40 mins by HTRF assay; assay type: protein-complex assay
[3] = Cytotoxicity against human PBMC cells assessed as reduction in cell growth at 0.003 to 2.22 uM incubated for 72 hrs by CCK8 assay; assay type: toxicity, cell-based; conditions: dose 0.003-2.22 µM
[4] = Cytotoxicity against human PBMC cells assessed as reduction in cell growth at >2.22 uM incubated for 72 hrs by CCK8 assay; assay type: toxicity, cell-based
[5] = biological target: T1, Programmed cell death protein 1/Programmed cell death 1 ligand 1; experiment: Inhibition of PD-1/PD-L1 interaction in human CD3+ T-cells co-cultured with Hep3B cells expressing OS8/hPD-L1 assessed as increase in IFN-gamma secretion measured after 72 hrs by ELISA; conditions: dose 0.082-2.222 µM, DDE = dose-dependent effect
[6] = Cytotoxicity against human PBMC cells assessed as reduction in cell growth incubated for 72 hrs by CCK8 assay; assay type: toxicity, cell-based
[7] = biological target: T1, Programmed cell death protein 1/Programmed cell death 1 ligand 1; experiment: Inhibition of PD-1/PD-L1 interaction in CHO cells expressing PD-Ll/TCR cocultured with human Jurkat cells expressing PD-1 assessed as T-cell activation by measuring maximum relative luminescence intensity value at 10 uM incubated for 6 hrs by luciferase reporter gene assay; assay type: cell-based
[8] = biological target: T1, Programmed cell death protein 1/Programmed cell death 1 ligand 1; experiment: Inhibition of PD-1/PD-L1 interaction in human CD3+ T-cells co-cultured with Hep3B cells expressing OS8/hPD-L1 assessed as increase in IFN-gamma secretion at 2.22 uM measured after 72 hrs by ELISA; parameters: scale not given: the % may be the effect or the level left
[9] = biological target: Programmed cell death 1 ligand 1 (Homo sapiens) (UniProt Q9NZQ7); experiment: Binding affinity to human PD-L1 assessed as change in melting temperature at 50 uM by thermal shift based DSF assay
[10] = biological target: Programmed cell death 1 ligand 1 (Homo sapiens) (UniProt Q9NZQ7); experiment: Binding affinity to human PD-L1 assessed as change in melting temperature at 20 uM by thermal shift based DSF assay
[11] = biological target: Programmed cell death 1 ligand 1 (Homo sapiens) (UniProt Q9NZQ7); experiment: Binding affinity to human PD-L1 assessed as change in melting temperature at 10 uM by thermal shift based DSF assay
[12] = biological target: T1, Programmed cell death protein 1/Programmed cell death 1 ligand 1; experiment: Inhibition of PD-1/PD-L1 (unknown origin) interaction; assay type: protein-complex assay

Sequence of Programmed cell death 1 ligand 1 (Homo sapiens) (Q9NZQ7 whole entry): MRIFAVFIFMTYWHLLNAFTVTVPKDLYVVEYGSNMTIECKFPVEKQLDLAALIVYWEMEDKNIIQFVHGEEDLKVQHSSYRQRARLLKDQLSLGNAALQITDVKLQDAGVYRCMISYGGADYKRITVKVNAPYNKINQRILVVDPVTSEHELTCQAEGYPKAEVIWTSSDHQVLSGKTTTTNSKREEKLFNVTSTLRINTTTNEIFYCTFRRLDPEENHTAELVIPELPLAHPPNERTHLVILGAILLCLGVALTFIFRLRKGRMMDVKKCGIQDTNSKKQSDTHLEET
T1 sequence (Q15116 whole entry, the tested form may be a part): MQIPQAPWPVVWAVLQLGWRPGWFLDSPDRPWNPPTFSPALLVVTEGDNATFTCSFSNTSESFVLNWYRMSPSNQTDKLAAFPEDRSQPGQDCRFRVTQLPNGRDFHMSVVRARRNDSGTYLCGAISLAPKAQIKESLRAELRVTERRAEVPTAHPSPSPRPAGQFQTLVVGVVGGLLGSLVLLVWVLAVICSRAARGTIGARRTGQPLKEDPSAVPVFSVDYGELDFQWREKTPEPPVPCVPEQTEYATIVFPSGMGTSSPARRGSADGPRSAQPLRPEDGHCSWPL
T1 sequence (Q9NZQ7 whole entry, the tested form may be a part): as the sequence (Q9NZQ7 whole entry) above

N#Cc1cccc(COc2cc(Oc3ncnc4c(-c5ccc6c(c5)OCCO6)cccc34)c(Cl)cc2CNC(CO)CO)c1
IC50 [1]: 31.1 nM

N#Cc1cccc(COc2cc(Oc3ncnc4c(-c5ccccc5)cccc34)c(Cl)cc2CN2CCCC[C@@H]2C(=O)O)c1
IC50 [1]: > 500 nM

N#Cc1cncc(COc2cc(Oc3ncnc4c(-c5ccccc5)cccc34)c(Cl)cc2CNC(CO)CO)c1
IC50 [1]: 57.6 nM

CC(CO)(CO)NCc1cc(Cl)c(Oc2ncnc3c(-c4ccc5c(c4)OCCO5)cccc23)cc1OCc1cccc(C#N)c1
IC50 [1]: 18.8 nM

CC(=O)NCCNCc1cc(Cl)c(Oc2ncnc3c(-c4ccc5c(c4)OCCO5)cccc23)cc1OCc1cccc(C#N)c1
IC50 [1]: > 500 nM

N#Cc1cncc(COc2cc(Oc3ncnc4c(-c5ccc6c(c5)OCCO6)cccc34)c(Cl)cc2CNCCO)c1
IC50 [1]: 12.2 nM

Cc1c(-c2ccccc2)cccc1-c1nc2cc(CNCCO)ccc2o1
IC50 [2]: ≤ 10 nM

N#Cc1cccc(COc2cc(Oc3ncnc4c(-c5ccccc5)cccc34)c(Cl)cc2CN2CCCC[C@H]2C(=O)O)c1
IC50 [1]: > 500 nM

N#Cc1cncc(COc2cc(Oc3ncnc4c(-c5ccc6c(c5)OCCO6)cccc34)c(Cl)cc2CNC(CO)CO)c1
Activity [3]: Non-Toxic | IC50 [1]: 5.37 nM | Activity [4]: Toxic | inhibition [5]: Dde | IC50 at 72 h [6]: 5310 nM | RLU [7]: 3370 | Activity [8]: 654%

CC(=O)NCCNCc1cc(Cl)c(Oc2ncnc3c(-c4ccc5c(c4)OCCO5)cccc23)cc1OCc1cncc(C#N)c1
IC50 [1]: 96 nM

CC(=O)NCCNCc1cc(Cl)c(Oc2ncnc3c(-c4ccccc4)cccc23)cc1OCc1cccc(C#N)c1
IC50 [1]: > 500 nM

N#Cc1cccc(COc2cc(Oc3ncnc4c(-c5ccccc5)cccc34)c(Cl)cc2CNCCO)c1
IC50 [1]: 78.5 nM

CC(C)(NCc1cc(Cl)c(Oc2ncnc3c(-c4ccccc4)cccc23)cc1OCc1cccc(C#N)c1)C(=O)O
IC50 [1]: 150 nM

N#Cc1cccc(COc2cc(Oc3ncnc4c(-c5ccc6c(c5)OCCO6)cccc34)c(Cl)cc2CNCCO)c1
IC50 [1]: 22.4 nM

N#Cc1cccc(COc2cc(Oc3ncnc4c(-c5ccc6c(c5)OCCO6)cccc34)c(Cl)cc2CN2CCCC[C@@H]2C(=O)O)c1
IC50 [1]: 411 nM

CC(C)(NCc1cc(Cl)c(Oc2ncnc3c(-c4ccc5c(c4)OCCO5)cccc23)cc1OCc1cccc(C#N)c1)C(=O)O
IC50 [1]: 88.6 nM

CC(CO)(CO)NCc1cc(Cl)c(Oc2ncnc3c(-c4ccc5c(c4)OCCO5)cccc23)cc1OCc1cncc(C#N)c1
Activity [3]: Non-Toxic | ΔTm [9]: 3.25 °C | ΔTm [10]: 3.2 °C | IC50 [1]: 1.57 nM | Activity [4]: Toxic | inhibition [5]: Dde | IC50 at 72 h [6]: 12400 nM | RLU [7]: 3120 | ΔTm [11]: 2.35 °C | Activity [8]: 820%

N#Cc1cccc(COc2cc(Oc3ncnc4c(-c5ccc6c(c5)OCCO6)cccc34)c(Cl)cc2CN2CCCC[C@H]2C(=O)O)c1
IC50 [1]: > 500 nM

CC(C)OC(=O)[C@H](CO)NCc1cc(Cl)c(OCc2cccc(-c3ccc4c(c3)OCCO4)c2Br)cc1OCc1cccnc1
IC50 [12]: 10 nM

N#Cc1cccc(COc2cc(Oc3ncnc4c(-c5ccccc5)cccc34)c(Cl)cc2CNC(CO)CO)c1
IC50 [1]: 24.2 nM

N#Cc1cncc(COc2cc(Oc3ncnc4c(-c5ccccc5)cccc34)c(Cl)cc2CNCCO)c1
IC50 [1]: 171 nM

CC(CO)(CO)NCc1cc(Cl)c(Oc2ncnc3c(-c4ccccc4)cccc23)cc1OCc1cncc(C#N)c1
IC50 [1]: 32.5 nM

CC(=O)NCCNCc1cc(Cl)c(Oc2ncnc3c(-c4ccccc4)cccc23)cc1OCc1cncc(C#N)c1
IC50 [1]: 187 nM

CC(CO)(CO)NCc1cc(Cl)c(Oc2ncnc3c(-c4ccccc4)cccc23)cc1OCc1cccc(C#N)c1
IC50 [1]: 22.9 nM
